Test results taken from PMC6773697, “Antileukemic activity of novel adenosine derivatives” (Scientific Reports, 2019).

What was measured:
[1] = system: leukemic cells (HL-60, MOLT-4, THP-1); test: XTT cytotoxicity assay, leukemic cells overall; format: cell-based, human; settings: XTT, leukemic cell lines
Experimental: (§1) The cytotoxic activity test with XTT (sodium 3′-[1-(phenylaminocarbonyl)- 3,4-tetrazolium]-bis (4-methoxy-6-nitro) benzene sulfonic acid hydrate) is a colorimetric method for determining the parameters associated with cell viability. The cytotoxicity in HL-60, THP-1, MOLT-4, and HMEC-1 cells was measured by the XTT assay. XTT is reduced to formazan by the mitochondrial respiratory chain oxidoreductase, which is active only in living cells. The formed crystals of formazan are dissolved directly in the medium. The amount of product is proportional to the number of live cells.
(§2) The IC50 parameter was determined by dividing the mean absorbance values of the drug-treated samples by those of control cells and defined as the drug concentration causing a 50% reduction of cell viability relative to the control. It was calculated using the “Ed50v10(1)” computer application. Cells were plated in 96-well plates at a density of 15 × 10^3 cells in 100 μL culture medium. Drugs were then added at a concentration range of 10 nM–10,000 nM to obtain a final volume of the mixture of 150 μL. Some cells were preincubated with an ATR kinase inhibitor (VE-821) for 1 h at 37 °C before adding the tested compounds. In this case drugs were added at a concentration range of 10 nM–300 nM. For the XTT assay, after 48 h of incubation, the plates were centrifuged at 1,500 rpm for 10 min at 4 °C, the culture medium was removed, and the cells were suspended in 100 mm^3 of HBSS (Hank’s Buffered Salt Solution) containing 140 mM NaCl, 5 mM KCl, 0.8 mM MgCl2, 1.8 mM CaCl2, 1 mM Na2HPO4, 10 mM HEPES (N- (2-hydroxyethyl) -piperazine-N′- (2-ethanesulfonic acid), and 1% glucose at pH 7.4. Then, 50 μL of XTT solution (in PBS) was added to a final concentration of […]. In addition, PMS (phenazine methosulphate) - methyl dibenzo-N-methylpyrazine sulphate (0.383 mg/cm^3) was used, which was combined with XTT solution at a ratio of 1:50. After 4 h of incubation with XTT, absorbance was measured at a wavelength λ = 450 nm and reference wavelength λ = 690 nm with a microplate reader (BioTek, Winooski, VT, USA).

HL-60 cells = test: XTT cytotoxicity assay, HL-60; format: cell-based; settings: Homo sapiens, 48 h incubation, none in the picture
Experimental: as §1, §2

dCK in THP-1 cells = test: Deoxycytidine kinase activity, THP-1; format: cell-based, human; settings: THP-1, 24 h incubation
Experimental: Deoxycytidine kinase activity was measured in accordance with the manufacturer’s protocol. The cells, at final concentration were plated at 1 × 10^6 cells per 24-well plates and cultured with the tested compounds for 24 h. Some cells were preincubated with an ATR kinase inhibitor (VE-821) for 1 h at 37 °C before adding the tested compounds. After drug treatment, the cells were washed with PBS and resuspended in an ice-cold cytosol extraction buffer containing 1 mM phenylmethylsulfonyl fluoride (PMSF) and a protease inhibitor cocktail. The cell lysate was centrifuged at 10,000 × g for 30 min at 4 °C. The protein concentration was determined using the Bradford method. The supernatant (cytosolic fraction) was collected and stored at −80 °C. The clarified cytoplasm extracts, dCK standards, and blank control were added to the appropriate microtiter plate wells with a biotin-conjugated polyclonal antibody prepared specifically for dCK. Avidin conjugated to horseradish peroxidase (HRP) was added to each microplate well and incubated. Then, a TMB substrate solution was added to the plate. […] The enzyme-substrate reaction was terminated by addition of a sulfuric acid solution. The color change was measured spectrophotometrically at a wavelength of 450 nm using a microplate reader (BioTek).

THP-1 cells = test: XTT cytotoxicity assay, THP-1; format: cell-based, human; settings: for IC50: Homo sapiens, THP-1, XTT, 48 h incubation, none in the picture; for sensitivity of cells to the compound: THP-1, XTT
Experimental: as §1, §2

[2] = system: intracellular calcium in THP-1 cells; test: Intracellular calcium assay (Fluo-4 NW), THP-1; format: cell-based, human; settings: THP-1, 2 h incubation
Experimental: Intracellular calcium levels were determined using the fluorescent probe Fluo-4 NW. The cells were plated in 96-well black plates (15 × 10^3 cells/well) and treated with cladribine and the new derivatives. Incubation with drugs was performed for different times (2–48 h). The medium was then removed, and the cells were washed with phosphate buffered saline (PBS)[35],[36]. Finally, a dye loading solution (Fluo-4 NW dye, probenecid, assay buffer—1xHBSS, 20 mM HEPES; 100 μL per well) was processed according to the Fluo-4 NW Calcium Assay Kit protocol (Molecular Probes) and incubated for 30 min in the dark at 37 °C, and then for another 30 min at the room temperature. The measurements were calculated on a fluorescence plate reader for excitation at 494 nm and emission at 516 nm. To avoid errors in the measurement of fluorescence intensity, caused by feasible cell detachment and resulting decrease in the cell number in the samples due to the drug treatment, DNA content was estimated as well.[37] After the measurement of intracellular calcium fluorescence, the probes were centrifuged at 300xg, 10 min. […] Then 100 μl of 5 μM of propidium iodide (PI) was added, the plate was immediately shaken, incubated for 15 min at room temperature in the dark and the fluorescence was read at 350/620 nm with a Fluoroskan Ascent FL microplate reader (Labsystems, Sweden).

Row | SMILES | cytotoxicity (in words) [1] | IC50 (HL-60 cells) | dCK activity (dCK in THP-1 cells) | IC50 (THP-1 cells) | sensitivity of cells to the compound (THP-1 cells) | intracellular calcium ion concentration [2]
1 | OC[C@H]1O[C@@H](n2cnc3c(N=CN4CCCC4)nc(Cl)nc32)C[C@@H]1O [CLA-FPIR, [6-deamino-6-(N′, N′-l′, 4′-tetramethyleneformamidino)] cladribine] | high cytotoxic activity | 135 nM | highest dCK activity | 36 nM | highest sensitivity | highest intracellular calcium ion concentration
2 | OC[C@H]1O[C@@H](n2cnc3c(N=CN4CCOCC4)nc(Cl)nc32)C[C@@H]1O [CLA-FMOR, [6-deamino-6-(N′, N′-3′-oxa-1′, 5′-pentamethyleneformamidine)] cladribine] | high cytotoxic activity | 122 nM | highest dCK activity | 41 nM | highest sensitivity | highest intracellular calcium ion concentration
